Assay results from patent US20240158446A1, “CYCLIC COMPOUND HAVING SELECTIVE INHIBITORY ACTION ON KRAS OVER HRAS AND NRAS” (CHUGAI SEIYAKU KABUSHIKI KAISHA, priority 2021, published 2024).

Experiments:
[1] = molecular target: GDP-bound NRAS wild-type protein (Homo sapiens, UniProt P01111); assay: Binding to NRAS by surface plasmon resonance (SPR), Single Cycle Kinetics; settings: ratio of KD for GDP-bound NRAS wild-type protein to KD for KRAS, SPR
[2] = test system: human lung cancer strain NCI-H441; assay: cells; settings: NCI-H441, 96 h, read-out: NCI-H441 IC50 (nM), NCI-H441 cell proliferation, 4 days, CellTiter-Glo;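 further: cell proliferation inhibition after four days measured by CellTiter-Glo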
[3] = molecular target: GDP-bound HRAS wild-type protein (Homo sapiens, UniProt P01112); assay: Binding to HRAS by surface plasmon resonance (SPR), Single Cycle Kinetics; settings: ratio of KD for GDP-bound HRAS wild-type protein to KD for KRAS, SPR
Chain of GDP-bound HRAS wild-type protein (P01112 whole entry): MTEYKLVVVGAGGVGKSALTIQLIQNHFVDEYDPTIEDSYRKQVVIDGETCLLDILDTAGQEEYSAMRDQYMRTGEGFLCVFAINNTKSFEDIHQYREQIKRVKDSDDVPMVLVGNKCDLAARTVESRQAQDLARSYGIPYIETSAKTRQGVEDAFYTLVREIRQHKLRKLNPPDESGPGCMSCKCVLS

Chain of GDP-bound NRAS wild-type protein (P01111 whole entry): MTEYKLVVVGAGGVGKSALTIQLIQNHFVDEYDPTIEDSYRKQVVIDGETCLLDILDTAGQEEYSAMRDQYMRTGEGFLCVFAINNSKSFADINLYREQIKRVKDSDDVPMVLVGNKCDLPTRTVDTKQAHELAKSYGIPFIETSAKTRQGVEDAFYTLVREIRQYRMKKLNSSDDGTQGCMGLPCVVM

CC[C@H](C)[C@@H]1NC(=O)[C@H](CC2CCC2)N(C)C(=O)C[C@@H](C(=O)N(C)C)N(C)C(=O)[C@H](C2CCCC2)N(C)C(=O)C2(CCC2)N(C)C(=O)[C@@H]2C[C@@H](C)CN2C(=O)[C@H](CCc2cc(F)c(C(F)(F)F)c(F)c2)NC(=O)CN(C)C(=O)[C@H](Cc2ccc(C)cc2)N2CC/C=C\C[C@@H](C2=O)N(C)C(=O)CN(C)C1=O [PP1803]
NRAS/KRAS (KD ratio) [1]: A (a compound having 10 or more and less than 20 is denoted as A) | IC50 [2]: 7.6 nM | HRAS/KRAS (KD ratio) [3]: B (a compound having 3 or more and less than 10 is denoted as B)

CCCN1C(=O)C[C@@H](C(=O)N(C)C)N(C)C(=O)[C@H](C2CCCC2)N(C)C(=O)C2(CCC2)NC(=O)[C@@H]2C[C@@H](OCC)CN2C(=O)[C@H](CCc2cc(F)c(C(F)(F)F)c(F)c2)NC(=O)CN(C)C(=O)[C@H](Cc2ccc(C(F)(F)F)cc2)N2CC/C=C\C[C@@H](C2=O)N(C)C(=O)CN(C)C(=O)[C@H]([C@@H](C)CC)NC(=O)[C@@H]1CC(C)C [PP1825]
NRAS/KRAS (KD ratio) [1]: A (a compound having 10 or more and less than 20 is denoted as A) | IC50 [2]: 8 nM | HRAS/KRAS (KD ratio) [3]: A (a compound having 10 or more and less than 20 is denoted as A)

CCC[C@H]1C(=O)N[C@@H]([C@@H](C)CC)C(=O)N(C)CC(=O)N(C)[C@H]2C/C=C\CCN(C2=O)[C@@H](Cc2ccc(C)cc2)C(=O)N(C)CC(=O)N[C@@H](CCc2ccc(C(F)(F)F)c(OC)c2)C(=O)N2C[C@@H](C)C[C@H]2C(=O)NC2(CCC2)C(=O)N(C)[C@@H](C2CCCC2)C(=O)N(C)[C@H](C(=O)N(C)CC)CC(=O)N1C [PP1840]
NRAS/KRAS (KD ratio) [1]: A (a compound having 10 or more and less than 20 is denoted as A) | IC50 [2]: 26.8 nM | HRAS/KRAS (KD ratio) [3]: B (a compound having 3 or more and less than 10 is denoted as B)

CC[C@H](C)[C@@H]1NC(=O)[C@H](CC)N(C)C(=O)C[C@@H](C(=O)N(C)C)N(C)C(=O)[C@H](C2CCCC2)N(C)C(=O)C2(CC(C)(C)C2)NC(=O)[C@@H]2C[C@@H](C)CN2C(=O)[C@H](CCc2ccc(C(F)(F)F)c(Cl)c2)NC(=O)CN(C)C(=O)[C@H](Cc2ccc(C)cc2)N2CC/C=C\C[C@@H](C2=O)N(C)C(=O)CN(C)C1=O [PP1846]
NRAS/KRAS (KD ratio) [1]: A (a compound having 10 or more and less than 20 is denoted as A) | IC50 [2]: 9.8 nM | HRAS/KRAS (KD ratio) [3]: B (a compound having 3 or more and less than 10 is denoted as B)

CC[C@H](C)[C@@H]1NC(=O)[C@H](CC(C)C)N(C)C(=O)C[C@@H](C(=O)N(CC)CC)N(C)C(=O)[C@H](C2CCCC2)N(C)C(=O)C2(CCC2)NC(=O)[C@@H]2C[C@@H](C)CN2C(=O)[C@H](CCc2ccc(C(F)(F)F)c(OC)c2)NC(=O)CN(C)C(=O)[C@H](Cc2ccc(C)cc2)N2CC/C=C\C[C@@H](C2=O)N(C)C(=O)CN(C)C1=O [PP1849]
NRAS/KRAS (KD ratio) [1]: A (a compound having 10 or more and less than 20 is denoted as A) | IC50 [2]: 37.1 nM | HRAS/KRAS (KD ratio) [3]: A (a compound having 10 or more and less than 20 is denoted as A)

CC[C@H](C)[C@@H]1NC(=O)[C@H](CC(C)C)N(C)C(=O)C[C@@H](C(=O)N(C)C)N(C)C(=O)[C@H](C2CCCC2)N(C)C(=O)C2(CCC2)NC(=O)[C@@H]2C[C@H](C)CN2C(=O)[C@H](CCc2ccc(C(F)(F)F)c(Cl)c2)NC(=O)CN(C)C(=O)[C@H](Cc2ccc(C)cc2)N2CC/C=C\C[C@@H](C2=O)N(C)C(=O)CN(C)C1=O [PP1852]
NRAS/KRAS (KD ratio) [1]: A (a compound having 10 or more and less than 20 is denoted as A) | IC50 [2]: 6 nM | HRAS/KRAS (KD ratio) [3]: B (a compound having 3 or more and less than 10 is denoted as B)

CCC[C@H]1C(=O)N[C@@H]([C@@H](C)CC)C(=O)N(C)CC(=O)N(C)[C@H]2C/C=C\CCN(C2=O)[C@@H](Cc2ccc(C)cc2)C(=O)N(C)CC(=O)N[C@@H](CCc2ccc(C(F)(F)F)c(OC)c2)C(=O)N2C[C@@H](C)C[C@H]2C(=O)NC2(CCC2)C(=O)N(C)[C@@H](C2CCCC2)C(=O)N(C)[C@H](C(=O)N(C)C)CC(=O)N1C [PP1857]
NRAS/KRAS (KD ratio) [1]: A (a compound having 10 or more and less than 20 is denoted as A) | IC50 [2]: 5 nM | HRAS/KRAS (KD ratio) [3]: B (a compound having 3 or more and less than 10 is denoted as B)

CCC[C@H]1C(=O)N[C@@H]([C@@H](C)CC)C(=O)N(C)CC(=O)N(C)[C@H]2C/C=C\CCN(C2=O)[C@@H](Cc2ccc(C)cc2)C(=O)N(C)CC(=O)N[C@@H](CCc2ccc(C(F)(F)F)c(OC)c2)C(=O)N2C[C@H](C)C[C@H]2C(=O)NC2(CCC2)C(=O)N(C)[C@@H](C2CCCC2)C(=O)N(C)[C@H](C(=O)N(C)C)CC(=O)N1C [PP1859]
NRAS/KRAS (KD ratio) [1]: A (a compound having 10 or more and less than 20 is denoted as A) | IC50 [2]: 28.8 nM | HRAS/KRAS (KD ratio) [3]: A (a compound having 10 or more and less than 20 is denoted as A)

CCC[C@H]1C(=O)N[C@@H]([C@@H](C)CC)C(=O)N(C)CC(=O)N(C)[C@H]2C/C=C\CCN(C2=O)[C@@H](Cc2ccc(C)cc2)C(=O)N(C)CC(=O)N[C@@H](CCc2cc(F)c(C(F)(F)F)c(F)c2)C(=O)N2C[C@@H](C)C[C@H]2C(=O)NC2(CCC2)C(=O)N(C)[C@@H](C2CCCC2)C(=O)N(C)[C@H](C(=O)N(C)CC)CC(=O)N1C [PP1860]
NRAS/KRAS (KD ratio) [1]: A (a compound having 10 or more and less than 20 is denoted as A) | IC50 [2]: 10.3 nM | HRAS/KRAS (KD ratio) [3]: A (a compound having 10 or more and less than 20 is denoted as A)

CC[C@H](C)[C@@H]1NC(=O)[C@H](CC2CC2)N(C)C(=O)C[C@@H](C(=O)N(C)C)N(C)C(=O)[C@H](C2CCCC2)N(C)C(=O)C2(CCC2)NC(=O)[C@@H]2C[C@H](C)CN2C(=O)[C@H](CCc2ccc(C(F)(F)F)c(OC)c2)NC(=O)CN(C)C(=O)[C@H](Cc2ccc(C)cc2)N2CC/C=C\C[C@@H](C2=O)N(C)C(=O)CN(C)C1=O [PP1861]
NRAS/KRAS (KD ratio) [1]: A (a compound having 10 or more and less than 20 is denoted as A) | IC50 [2]: 25.7 nM | HRAS/KRAS (KD ratio) [3]: B (a compound having 3 or more and less than 10 is denoted as B)

CCC[C@H]1C(=O)N[C@@H]([C@@H](C)CC)C(=O)N(C)CC(=O)N(C)[C@H]2C/C=C\CCN(C2=O)[C@@H](Cc2ccc(C)cc2)C(=O)N(C)CC(=O)N[C@@H](CCc2cc(F)c(C(F)(F)F)c(F)c2)C(=O)N2C[C@H](C)C[C@H]2C(=O)NC2(CCC2)C(=O)N(C)[C@@H](C2CCCC2)C(=O)N(C)[C@H](C(=O)N(C)CC)CC(=O)N1C [PP1862]
NRAS/KRAS (KD ratio) [1]: A (a compound having 10 or more and less than 20 is denoted as A) | IC50 [2]: 22.2 nM | HRAS/KRAS (KD ratio) [3]: A (a compound having 10 or more and less than 20 is denoted as A)

CC[C@H](C)[C@@H]1NC(=O)[C@H](CC(C)C)N(C)C(=O)C[C@@H](C(=O)N(C)C)N(C)C(=O)[C@H](C2CCCC2)N(C)C(=O)C2(CCC2)NC(=O)[C@@H]2C[C@H](C)CN2C(=O)[C@H](CCc2ccc(C(F)(F)F)c(OC)c2)NC(=O)CN(C)C(=O)[C@H](Cc2ccc(C)cc2)N2CC/C=C\C[C@@H](C2=O)N(C)C(=O)CN(C)C1=O [PP1865]
NRAS/KRAS (KD ratio) [1]: A (a compound having 10 or more and less than 20 is denoted as A) | IC50 [2]: 36 nM | HRAS/KRAS (KD ratio) [3]: B (a compound having 3 or more and less than 10 is denoted as B)

CCC[C@H]1C(=O)N[C@@H]([C@@H](C)CC)C(=O)N(C)CC(=O)N(C)[C@H]2C/C=C\CCN(C2=O)[C@@H](Cc2ccc(C)cc2)C(=O)N(C)CC(=O)N[C@@H](CCc2ccc(C(F)(F)F)c(OC)c2)C(=O)N2C[C@@H](C)C[C@H]2C(=O)NC2(CC(C)(C)C2)C(=O)N(C)[C@@H](C2CCCC2)C(=O)N(C)[C@H](C(=O)N(C)C)CC(=O)N1C [PP1888]
NRAS/KRAS (KD ratio) [1]: A (a compound having 10 or more and less than 20 is denoted as A) | IC50 [2]: 3.5 nM | HRAS/KRAS (KD ratio) [3]: B (a compound having 3 or more and less than 10 is denoted as B)

CCC[C@H]1C(=O)N[C@@H]([C@@H](C)CC)C(=O)N(C)CC(=O)N(C)[C@H]2C/C=C\CCN(C2=O)[C@@H](Cc2ccc(C)cc2)C(=O)N(C)CC(=O)N[C@@H](CCc2ccc(C(F)(F)F)c(OC)c2)C(=O)N2C[C@H](C)C[C@H]2C(=O)NC2(CC(C)(C)C2)C(=O)N(C)[C@@H](C2CCCC2)C(=O)N(C)[C@H](C(=O)N(C)C)CC(=O)N1C [PP1890]
NRAS/KRAS (KD ratio) [1]: A (a compound having 10 or more and less than 20 is denoted as A) | IC50 [2]: 3.6 nM | HRAS/KRAS (KD ratio) [3]: B (a compound having 3 or more and less than 10 is denoted as B)

CCC[C@H]1C(=O)N[C@@H]([C@@H](C)CC)C(=O)N(C)CC(=O)N(C)[C@H]2C/C=C\CCN(C2=O)[C@@H](Cc2ccc(C)cc2)C(=O)N(C)CC(=O)N[C@@H](CCc2ccc(C(F)(F)F)c(Cl)c2)C(=O)N2C[C@H](C)C[C@H]2C(=O)NC2(CC(C)(C)C2)C(=O)N(C)[C@@H](C2CCCC2)C(=O)N(C)[C@H](C(=O)N(C)CC)CC(=O)N1C [PP1894]
NRAS/KRAS (KD ratio) [1]: A (a compound having 10 or more and less than 20 is denoted as A) | IC50 [2]: 15.9 nM | HRAS/KRAS (KD ratio) [3]: A (a compound having 10 or more and less than 20 is denoted as A)

CC[C@H](C)[C@@H]1NC(=O)[C@H](CC2CC2)N(C)C(=O)C[C@@H](C(=O)N(C)CC)N(C)C(=O)[C@H](C2CCCC2)N(C)C(=O)C2(CC(C)(C)C2)NC(=O)[C@@H]2C[C@H](C)CN2C(=O)[C@H](CCc2ccc(C(F)(F)F)c(OC)c2)NC(=O)CN(C)C(=O)[C@H](Cc2ccc(C)cc2)N2CC/C=C\C[C@@H](C2=O)N(C)C(=O)CN(C)C1=O [PP1899]
NRAS/KRAS (KD ratio) [1]: A (a compound having 10 or more and less than 20 is denoted as A) | IC50 [2]: 15.1 nM | HRAS/KRAS (KD ratio) [3]: B (a compound having 3 or more and less than 10 is denoted as B)

CC[C@H](C)[C@@H]1NC(=O)[C@H](CC2CC2)N(C)C(=O)C[C@@H](C(=O)N(C)C)N(C)C(=O)[C@H](C2CCCC2)N(C)C(=O)C2(CC(C)(C)C2)NC(=O)[C@@H]2C[C@@H](C)CN2C(=O)[C@H](CCc2ccc(C(F)(F)F)c(OC)c2)NC(=O)CN(C)C(=O)[C@H](Cc2ccc(C)cc2)N2CC/C=C\C[C@@H](C2=O)N(C)C(=O)CN(C)C1=O [PP1901]
NRAS/KRAS (KD ratio) [1]: A (a compound having 10 or more and less than 20 is denoted as A) | IC50 [2]: 7.6 nM | HRAS/KRAS (KD ratio) [3]: B (a compound having 3 or more and less than 10 is denoted as B)
